Source: patent publication US11202854B2, “Disintegrin variants and uses thereof” (National Taiwan University, priority 2017, dated 2021)
In brackets after ≈: the same amount, converted by molar mass. Like-named read-outs stand apart in the source and are kept apart here. Positions of bridges follow the written chain, without caps; N, C: chain ends. Non-standard residues stand in square brackets, D forms with d. Residues, ends and D or L forms follow the SMILES beside them. hArg = N=C(N)NCCCC[C@H](N)C(=O)O; Mpa = O=C(O)CCS

Key:
[1] = Tail bleeding time; assay type: in vivo, mouse; details: 0.18 mg/Kg, mice
Description: Male ICR mice weighing 20-30 g were used in all studies. Animals were allowed to access food and water ad libitum under controlled temperature (20±1° C.) and humidity (55%±5%). The animal experimental protocols were approved by the Laboratory Animal Use Committee of College of Medicine, National Taiwan University.
Male ICR mice were intravenously injected through a lateral tail vein of the mouse with agents. A sharp cut of 2 mm segment from the distal tail was made 5 min after injection. The amputated tail was immediately placed into a tube filled with isotonic saline at 37° C. Bleeding time was recorded for a maximum of 10 min and the end point was the arrest of bleeding.

[2] = tested on: platelets; assay: Ex vivo collagen-induced platelet aggregation response; assay type: in vivo, mouse; details: FIG. 1 panels B and C
[3] = tested on: platelets
Description: Disintegrin and its variants of Example 1 were subject to test for their abilities in suppressing platelet aggregation mediated by αIIbβ3. Briefly, venous blood samples from healthy donors were collected and platelet-rich plasma was prepared therefrom. The platelet-rich plasma was then incubated with the stimulant (e.g., collagen or AP2) that triggered plug formation, then with the disintegrin and/or its variants of Example 1.

[4] = tested on: integrin αvβ3; assay: Cell adhesion assay: CHO-αvβ3 cells to fibrinogen; assay type: cell-based; details: CHO-αvβ3 cells to immobilized fibrinogen
Description: (§1) A cell adhesion assay was used to determine the inhibitory activity of Rho, TMV, and their variants and was conducted according to previously described protocols. 96-well microtiter plates (Costar; Corning) were coated with 100 μL PBS buffer containing 200 μg/mL fibrinogen or 50 μg/mL fibronectin, and incubated overnight at 4° C. Non-specific protein binding sites were blocked by incubating each well with 200 μL of heat-denatured 1% bovine serum albumin (BSA) (Calbiochem) at room temperature for 1.5 h. The heat-denatured BSA was discarded and each well was washed twice with 200 μL PBS.
(§2) Chinese hamster ovary (CHO) cells that expressed integrins αvβ3 (CHO-αvβ3) and αIIbβ3 (CHO-αIIbβ3) were kindly provided by Dr. Y. Takada (Scripps Research Institute) and maintained in Dulbecco's modified Eagle's medium (18, 27). Human erythroleukemia K562 cell was purchased from ATCC and cultured in Roswell Park Memorial Institute (RPMI)—1640 medium containing 10% fetal bovine serum (FBS). Harvested K562 cells were resuspended in RPMI-1640 medium containing 5% FBS. […]
(§3) The adhesions of CHO-αIIbβ3 cells to fibrinogen, CHO-αvβ3 cells to fibrinogen, and K562 cells to fibronectin were used to determine the inhibitory activities of tested protein to integrins αIIbβ3, αvβ3, and α5β1. […] The resulting absorbance was read at 600 nm and the readings were correlated with the number of adhering cells. […]

[5] = tested on: platelets; assay: ADP-induced platelet aggregation in platelet-rich plasma; assay type: cell-based, human
Description: (§4) Blood was collected from healthy volunteers who had not taken any medication for two weeks prior to the study. Informed consents were obtained from each and every participants, and the study was approved by the institutional review board of National Taiwan University Hospital. Preparation of human PS was performed in accordance with procedures described previously (Huang et al., Experimental haemtology. 2008 36(12), 1704-1713).
(§5) Disintegrin and its variants of Example 1 were subject to test for their abilities in suppressing platelet aggregation mediated by αIIbβ3. Briefly, venous blood samples from healthy donors were collected and platelet-rich plasma was prepared therefrom. The platelet-rich plasma was then incubated with the stimulant (e.g., collagen or […]) that triggered plug formation, then with the disintegrin and/or its variants of Example 1.

[6] = molecular target: T1, integrin αIIbβ3 (Homo sapiens, UniProt P05106+P08514); assay: Cell adhesion assay: CHO-αIIbβ3 cells to fibrinogen; assay type: cell-based; details: Table 3
T1 construct: host or cells: CHO (Chinese hamster ovary) cells
Description: as §1, §2, §3

[7] = tested on: platelets; assay: Platelet aggregation (inducer not stated); assay type: cell-based, human; details: Table 4; inducer not given
Description: as §4, §5

T1 sequence (P08514 32-887 limits assumed): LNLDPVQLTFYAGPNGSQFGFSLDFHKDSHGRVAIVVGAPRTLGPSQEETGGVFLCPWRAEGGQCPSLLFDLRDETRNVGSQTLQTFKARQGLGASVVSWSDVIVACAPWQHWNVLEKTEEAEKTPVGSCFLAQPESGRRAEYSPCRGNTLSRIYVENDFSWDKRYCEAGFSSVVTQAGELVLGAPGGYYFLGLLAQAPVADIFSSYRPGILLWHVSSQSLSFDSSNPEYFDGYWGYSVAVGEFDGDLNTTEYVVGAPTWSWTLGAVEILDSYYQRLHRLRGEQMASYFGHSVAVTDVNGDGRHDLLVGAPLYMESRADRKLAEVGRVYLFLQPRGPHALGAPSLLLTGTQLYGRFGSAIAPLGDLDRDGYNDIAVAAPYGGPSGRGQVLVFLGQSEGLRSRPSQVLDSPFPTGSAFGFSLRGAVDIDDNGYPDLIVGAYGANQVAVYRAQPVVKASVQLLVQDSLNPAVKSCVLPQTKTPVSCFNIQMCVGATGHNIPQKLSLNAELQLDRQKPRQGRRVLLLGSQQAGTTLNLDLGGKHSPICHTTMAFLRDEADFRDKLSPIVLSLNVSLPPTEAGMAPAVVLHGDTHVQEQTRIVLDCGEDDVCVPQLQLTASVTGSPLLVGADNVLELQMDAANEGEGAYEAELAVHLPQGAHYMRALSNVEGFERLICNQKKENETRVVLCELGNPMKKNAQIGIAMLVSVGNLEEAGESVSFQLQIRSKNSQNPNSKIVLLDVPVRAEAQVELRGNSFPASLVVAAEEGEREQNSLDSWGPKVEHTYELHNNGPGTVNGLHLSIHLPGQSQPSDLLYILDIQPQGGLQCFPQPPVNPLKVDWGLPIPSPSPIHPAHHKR
T1 sequence (P08514 891-1039 partner limits assumed): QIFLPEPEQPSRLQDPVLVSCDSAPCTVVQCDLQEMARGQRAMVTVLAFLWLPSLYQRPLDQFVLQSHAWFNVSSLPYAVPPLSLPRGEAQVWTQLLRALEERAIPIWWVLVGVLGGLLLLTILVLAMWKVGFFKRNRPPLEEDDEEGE
T1 sequence (P05106 27-788): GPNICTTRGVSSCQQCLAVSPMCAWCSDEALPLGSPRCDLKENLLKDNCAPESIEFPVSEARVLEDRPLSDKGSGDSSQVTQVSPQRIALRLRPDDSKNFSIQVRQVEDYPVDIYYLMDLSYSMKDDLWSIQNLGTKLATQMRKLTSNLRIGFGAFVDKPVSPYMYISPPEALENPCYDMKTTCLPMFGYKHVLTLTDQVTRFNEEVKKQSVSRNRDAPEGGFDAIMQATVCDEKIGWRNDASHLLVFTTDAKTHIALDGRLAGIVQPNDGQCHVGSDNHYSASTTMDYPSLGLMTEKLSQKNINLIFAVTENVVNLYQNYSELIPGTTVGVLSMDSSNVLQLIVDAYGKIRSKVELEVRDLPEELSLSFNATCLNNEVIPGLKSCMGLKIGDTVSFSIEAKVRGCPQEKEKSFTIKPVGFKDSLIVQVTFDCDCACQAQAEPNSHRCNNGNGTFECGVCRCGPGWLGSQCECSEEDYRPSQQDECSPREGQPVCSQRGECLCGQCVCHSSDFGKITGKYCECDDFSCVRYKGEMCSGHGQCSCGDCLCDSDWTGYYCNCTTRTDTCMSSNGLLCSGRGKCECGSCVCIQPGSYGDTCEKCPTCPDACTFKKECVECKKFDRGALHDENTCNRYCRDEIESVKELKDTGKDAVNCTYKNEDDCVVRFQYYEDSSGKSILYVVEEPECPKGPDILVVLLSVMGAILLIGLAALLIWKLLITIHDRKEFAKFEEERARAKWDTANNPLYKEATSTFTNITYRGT

Row | Compound | Tail bleeding time [1] | Collagen-induced platelet aggregation response [2] | IC50 on collagen-induced platelet aggregation ([3]; in vitro, FIG. 1 panel A) | IC50 [4] | IC50 [5] | IC50 [6] | IC50 [7] | IC50 ([3]; read-out: Platelet aggregation IC50 (nM), Collagen, collagen-induced)
1 | N=C(N)NCCCC[C@@H]1NC(=O)CCSSC[C@@H](C(N)=O)NC(=O)[C@@H]2CCCN2C(=O)[C@H](Cc2c[nH]c3ccccc23)NC(=O)[C@H](CC(=O)O)NC(=O)CNC1=O [eptifibatide] ([Mpa][hArg]GDWPC-NH2; disulfide 1-7) | significantly prolong | significantly suppressed | 0.75 µg/mL (≈ 0.901 µM) | – | – | – | – | –
2 | Rhodostomin | – | – | – | 13 ± 5.7 nM | 81.5 nM | 59.5 nM | 83.2 ± 10.4 nM | 66.8 nM
